The nature of data set [1]: Antihypoxic effect, investigations without described method. The settings on record: in vivo.
A short description of data set [2]: Vasodilating effect, tests without described method. To be noted: in vivo.
Data set [3] has as its system Tiere. Put plainly: Antihypoxic effect: asphyxic anoxia. The class given is in vivo. To be noted: po, 1 h; p.o., one hour before test; protected = survival 30 % longer than control; read-out: ED50 Asphyxische Anoxie. Here is the method: Die antihypoxische Wirkung wurde ferner hoch an asphyxischer Anoxie (Caillard C. et al.: Life Sci. 16, 1607 /1975/) und an hypobarer Hypoxie (Baumel J. et al: Proc. Soc. Biol. N.Y. 132, 629 /1969/) gemessen. Dabei wurden die Tiere 16 Stunden lang ausgehungert, dann p.o. behandelt und eine Stunde später in gut schließende Glasgefäße von 100 ml Volumen gesetzt. Als Überiebenszeit wurde die Zeit vom Verschließen des Gefäßes bis zur letzten Atembewegung registriert. Als erfolgreich behandelt können diejenigen Tiere gelten, die eine um 30 % längere Zeit an Leben blieben als der Durchschnitt der Kontrollgruppe.

Data set [4] deals with Tiere. Put plainly: Antihypoxic effect: hypobaric hypoxia. The class given is in vivo. The settings on record: po, 1 h; p.o., one hour before test; 221 mbar; protected = survival 100 % longer than control; probit analysis; read-out: ED50 Hypobare Hypoxie. An excerpt:
Die Wirkung auf die hypobare Hypoxie wurde an 16 Stunden lang ausgehungerten Tieren untersucht, die eine Stunde vor Versuchsbeginn p.o. mit den Verbindungen behandelt wurden. Die Tiere wurden In einen Vakuumexsikkator gesetzt, und der Druck wurde innerhalb von 20 Sekunden auf 221 mbar [170 Torr] gesenkt. Von diesem Zeitpunkt an wurde als Überlebensdauer die Zeit bis zur letzten Atembewegung gemessen. Als erfolgreich behandelt wurden diejenigen Tiere betrachtet, deren Überlebensdauer um 100 % länger war als die durchschnittliche Übedebensdauer der Kontrolle. Aus dem prozentualen Anteil der geschützten Tiere wurden mittels Probit-Analyse die ED50-Werte berechnet.

Data set [5] deals with nicht narkotisierter Mäuse. Put plainly: Antihypoxic effect: normobaric hypoxia in non-anaesthetised mice. The class given is in vivo. The settings on record: for Überlebensdauer (min): 50 mg/kg intraperitoneal 30 min before test, 96 % nitrogen, 4 % oxygen, mean ± spread; for Überlebensdauer (%) Verlängerung: prolongation versus control. The text has this: Die antihypoxische Wirkung wurde an nicht narkotisierten Mäusen in normobarer Hypoxie bestimmt. Fünf männliche Mäuse wurden in einen Glaszylinder von 3 Liter Volumen gesetzt, und in den Zylinder wurde ein aus 96 % Stickstoff und 4 % Sauerstoff bestehendes Gasgemisch eingeleitet. Gemessen wurde die Zeit zwischen dem Einbringen der Tiere in den Zylinder und ihrem Verenden. Diejenigen Tiere, die die unbehandelte Kontrolle um mehr als die doppelte Zeitspanne überlebten, können als erfolgreich behandelt gelten. Die zu untersuchenden Substanzen wurden je 10 Tieren in einer Dosis von 50 mg/kg Intraperitoneal 30 Minuten vor Versuchsbeginn verabreicht.

For data set [6], the system named is isolierten Meerschweinchenileum. Put plainly: Spasmolytic activity: inhibition of barium chloride-induced contraction of isolated guinea pig ileum. Also on record: species or system Meerschweinchen. The settings on record: Cavia porcellus. The text has this:
Die spasmolytische Aktivität der Verbindungen wurde am isolierten Meerschweinchendarm auf klassische Weise bestimmt (Magnus, R., Pflügers Arch., 102; 123/1904/). Als Referenzsubstanz wurden das bekannte Spasmolytikum Papaverin, ferner (+)-Apovincaminsäureäthylester verwendet. Die Ergebnisse sind in der Tabelle II zusammengefaßt.

Data set [7] has as its system Kreislauf narkotisierter Hunde. Put plainly: Vasodilating effect: blood flow in anaesthetised dogs (electromagnetic flow meter). The settings on record: Canis lupus familiaris, 1 mg/kg intravenous, six dogs. The class given is in vivo. Here is the method:
Die gefäßerweiternde Wirkung wurde an mit "Chloralose-Pentobarbital"-Gemisch narkotisierten Hunden untersucht. Die Durchblutung der Extremitäten wurde an der Arteria femoralis gemessen, über die Durchblutung des Gehirns ergaben Messungen an der Arteria carotis interna Aufschluß. Zu den Messungen wurden elektromagnetische Strömungsmesser verwendet. Die zu untersuchenden Substanzen wurden in einer Dosis von 1 mg/kg Körpergewicht sechs Hunden appliziert, und die in den gemessenen Parametern eintretenden Veränderungen wurden in Prozent umgerechnet. Als Referenzsubstanz diente der in der Medizin als gefäßerweiternde Substanz allgemein angewendete (+)-Apovincamlnsäureäthylester. Die Ergebnisse sind In der Tabelle I zusammengefaßt.

In data set [8] the test system is Mäusen. The experiment in a line: Anticonvulsive effect: maximal electroshock in mice. The format is in vivo. To be noted: Mus musculus, po; 20 mA, 0,2 s, corneal electrode; read-out: ED50 max. Elektroschock. For orientation: The maximal electroshock test induces tonic seizures with an electrical stimulus.
Source text: Der Schock wurde an 22 - 24 g schweren Tieren durch eine corneale Elektrode ausgelöst (20 mA, 0,2 s, HSE-Schockgerät Typ 207). Als geschützt wurden diejenigen Tiere betrachtet, bei denen durch die Behandlung die tonische Extension der hinteren Gliedmaßen ausblieb.
In data set [9] the test system is Mäusen. The experiment in a line: Anticonvulsive effect: metrazole (pentylenetetrazole) convulsion in mice. The format is in vivo. The settings on record: Mus musculus, po; 125 mg/kg pentylenetetrazole subcutaneous; read-out: ED50 Metrazolkrampf.
Source text: Die Tiere erhielten nach der Vorbehandlung subkutan 125 mglkg Pentylentetrazol. Registriert wurde das Ausbleiben des persistierenden clonischen Krampfes und des tonischen Extensorkrampfes.
Data set [10] is described as follows: in vivo. To be noted: for TD50: po. The method, then: Messung der Muskelinkoordination (Rotarod) (H. Kwibara et al.: Japan J. Pharmacol. 27, 117 /1977/). Nach vorherigem Training wurden Tiere ausgewählt die im Stande sind, 120 Sekunden lang auf dem horizontalen Stab (Durchmesser 20 mm, Drehzahl 12 min^-1) oben zu bleiben. Als Muskelinkoordination wurde gewertet, wenn die Tiere innerhalb der Limitzeit herabfielen.

The nature of data set [11]: in vivo. Also on record: species or system Mäuse. To be noted: mouse, po. The text has this:
Muskelrelaxierende Wirkung (Traction).

Where [12] appears, read: inhibition of barium chloride-induced contraction, read-out: ED50 (the source's name).
The mark [13] stands for this setting: blood flow of Arteria carotis interna (brain), read-out: A. carotis (Veränderungen in Prozent).
[14] abbreviates: blood flow of Arteria femoralis (extremities), read-out: A. femoralis (Veränderungen in Prozent).

Structures are written as SMILES. In brackets after ≈: the same amount, converted by molar mass. Where a name gives a salt, the structure may show the parent alone. Read-outs that look alike come from different tables or passages of the source.

In the case of `CCC12C=C(C(=O)OC)n3c4c(c5c([N+](=O)[O-])cccc53)CCN(CCC1)C42` (centres unmarked) [9-Nitro-apovincamin], the “antihypoxische Wirkung” value in data set [1] is on record as “keine antihypoxische Wirkung”.
Turning to `CCC12CCCN3CCc4c(n(c5cccc([N+](=O)[O-])c45)C(O)(C(=O)OC)C1)C32` (centres unmarked) [9-Nitro-vincamin], the “gefäßerweiternde Wirkung” value in data set [2] is “keine gefäßerweiternde Wirkung”.
Broadly, the ED50 is the midpoint of the dose-response relation. As to `CCOC(=O)C1=C[C@]2(CC)CCCN3CCc4c(n1c1ccccc41)[C@@H]32` [Apovincaminsäureäthylester, reference compound], the ED50 in the data set on Tiere [3] and with Tiere [4] was > 50 mg/kg each time. The “Überlebensdauer (min)” value in [5] is reported as 6,4 ± 1,58 min. For the same molecule, the “Überlebensdauer (%) Verlängerung” value in [5] (50 mg/kg intraperitoneal) was found to be 7%. The IC50 in [6] (setting [12]) was 2 µg/mL (≈ 5.71 µM).
In the case of `CCOC(=O)C1=C[C@]2(CC)CCCN3CCc4c(n1c1cccc(N)c41)[C@@H]32` [Beispiel 6, 9-(Amino)-apovincaminsäureäthylesterhydrochlorid], in [5], the “Überlebensdauer (min)” value is given as 7,3 ± 2,31 min. For the same molecule, the “Schutz (%)” value in [5] (50 mg/kg intraperitoneal, animals surviving more than twice the control time) is 10%. Besides, in data set [5] (50 mg/kg intraperitoneal), the “Überlebensdauer (%) Verlängerung” value is listed as 22%.
Turning to `CCOC(=O)C1=C[C@]2(CC)CCCN3CCc4c(n1c1cccc(NS(C)(=O)=O)c41)[C@@H]32` [Beispiel 7, 9-(Methylsulfonylamino)-apovincaminsäureäthylesterhydrochlorid], the change in vivo at 1 mg/kg in data set [7] (setting [13]) stood at 0%.
Consider `CC[C@@]12C=C(C(=O)OC)n3c4c(c5ccc(NC(=O)c6ccc([N+](=O)[O-])cc6)cc53)CCN(CCC1)[C@H]42` [Beispiel 9, 11-[4'-(Nitro)-benzoylamino]-apovincamin], for which the ED50 is 40.9 mg/kg in the data set on Tiere [3] and 42.1 mg/kg with Tiere [4].
Take `CC[C@@]12C=C(C(=O)OC)n3c4c(c5ccc(NC(C)=O)cc53)CCN(CCC1)[C@H]42` [Beispiel 21, 11-(Acetamido)-apovincamin]: the change in vivo at 1 mg/kg in data set [7] (setting [14]) was found to be 0%.
Take `CC[C@@]12C=C(C(=O)OC)n3c4c(c5ccc(NC(=O)c6ccccc6F)cc53)CCN(CCC1)[C@H]42` [Beispiel 26, 11-[2'-(Fluor)-benzoylamino]-apovincamin]: in data set [6] (setting [12]), the IC50 is 4 µg/mL (≈ 8.45 µM).
With `CC[C@@]12C=C(C(=O)OC)n3c4c(c5ccc(NC(=O)c6ccccc6)cc53)CCN(CCC1)[C@H]42` [Beispiel 28, 11-(Benzoylamino)-apovincamin], the ED50 in the data set with Tiere [3] is 25 mg/kg; with Tiere [4], > 50 mg/kg; with Mäusen [8], 16 mg/kg; in the data set on Mäusen [9], 15.9 mg/kg. In [6] (setting [12]), the IC50 was 2.5 µg/mL (≈ 5.49 µM).
Regarding `CCOC(=O)C1=C[C@]2(CC)CCCN3CCc4c(n1c1cc(NC(=O)c5cccs5)ccc41)[C@@H]32` [Beispiel 37, 11-(Thien-2'-ylcarbonylamino)-apovincaminsäureäthylesterhydrochlorid], the change in vivo at 1 mg/kg in data set [7] (setting [14]) was 0%.
For `CCOC(=O)C1=C[C@]2(CC)CCCN3CCc4c(n1c1cc(NC(=O)c5ccccc5)ccc41)[C@@H]32` [Beispiel 38, 11-(Benzoylamino)-apovincaminsäureäthylesterhydrochlorid], the ED50 in the data set on Mäusen [8] is 16.7 mg/kg; with Mäusen [9], 9.7 mg/kg. Further, the TD50 in the data set “in vivo [10]” and in the data set “in vivo [11]” was > 180 mg/kg each time. For the same molecule, the change in vivo at 1 mg/kg in data set [7] (setting [14]) was determined as 0%.
Take `CC[C@@]12C=C(C(=O)OCC(C)C)n3c4c(c5ccc(NC(C)=O)cc53)CCN(CCC1)[C@H]42` [Beispiel 39, 11-(Acetamido)-apovincaminsäureisobutylesterhydrochlorid]: the change in vivo at 1 mg/kg in data set [7] (setting [14]) was determined as 0%.
In the case of `CCOC(=O)C1=C[C@]2(CC)CCCN3CCc4c(n1c1cccc(NC(C)=O)c41)[C@@H]32` [Beispiel 40, 9-(Acetamido)-apovincaminsäureäthylesterhydrochlorid], in data set [7] (setting [13]), the change in vivo at 1 mg/kg came out at 0%.
Regarding `CCC1(c2ccccc2)NC(=O)N(C)C1=O` (centres unmarked) [Mephenitoin, reference compound], the ED50 with Tiere [3] is > 80 mg/kg; in the data set on Tiere [4], > 80 mg/kg; with Mäusen [8], 26.3 mg/kg; in the data set with Mäusen [9], 24.5 mg/kg. Besides, the selectivity ratio in the data set “in vivo [10]” (mouse) lay within 3 to 6. The TD50 in the data set “in vivo [10]” was determined as 78.6 mg/kg; in “in vivo [11]”, 154 mg/kg.
For the molecule `COc1ccc(Cc2nccc3cc(OC)c(OC)cc23)cc1OC` [Papaverin, reference compound], the IC50 in [6] (read-out: ED50) stood at 5.4 µg/mL (≈ 15.9 µM).
In the case of `CC[C@]12CCCN3CCc4c(n(c5ccccc45)[C@@](O)(C(=O)OC)C1)[C@@H]32` [Vincamin], in data set [5], the “Überlebensdauer (min)” value is reported as 6,1 ± 1,30 min. Moreover, in data set [5] (50 mg/kg intraperitoneal), the “Überlebensdauer (%) Verlängerung” value is on record as 2%.

Source of the values: patent publication EP0170926B1, “Eburnanecarboxylic acid derivatives having an amino group in position 9 or 11, the amino group eventually being substituted, process for their preparation, and medicaments containing these compounds” (priority 1984, dated 1986).
